The values below come from publication PMC7118115, “Tumor-penetrating peptide for systemic targeting of Tenascin-C” (Scientific Reports, 2020).

“Also recorded” adds a separate entry of the source.

Experiment [1] has as its system P3 SCL. As to the kind of experiment: In vivo play-off phage auditioning, P3 SCL tumor. More on the design: species or system P3 stem cell-like glioblastoma in athymic nude mice. The settings on record: phage-displayed peptide; equimolar mix, i.v. 1 × 10^10 pfu/mouse, 2 h circulation, perfusion; Ion-Torrent sequencing; mean, N = 3 mice. As for the experimental part:
(§1) Athymic nude mice (Hsd/Athymic Fox1 nu Harlan) were purchased from Envigo (Netherlands) and maintained under standard housing conditions of the Animal Facility of the Institute of Biomedicine and Translational Medicine, University of Tartu (Tartu, Estonia). For orthotropic GBM tumor models, we used NCH421K, P13, and P3 stem cell-like, WT-GBM cells. The individual GBM cells around 2–3 × 10^5 in 3 μL PBS were intracranially implanted into mice brain 2 mm right and 1 mm anterior to the bregma. U87-MG and PC3 subcutaneous models were induced by injecting 2–9 × 10^6 cells in 100 µl PBS subcutaneously into the right flank of 11–15 week old male and female nude mice. All animal experiments were performed in accordance with the procedures approved by the Committee of Animal Experimentation of Estonian Ministry of Agriculture, permits #42 and #48.
(§2) In vivo play-off was used for internally controlled and competitive systemic phage homing studies in mice bearing tumor xenografts. Phages displaying the candidate TNC-C binding peptides and control peptides were individually amplified and purified by precipitation with PEG-8000 (Sigma-Aldrich, St. Louis, MO, USA), followed by […] gradient ultracentrifugation and dialysis. The phages were pooled at equimolar representation (Table 1 for details) and injected iv at 1 × 10^10 pfu (in 200 µl PBS) in tumor-bearing mice, circulated for 2 h, followed by anesthesia and intracardial perfusion with DMEM. The tumors and organs were collected in lysogeny broth (LB) medium containing 1% NP40, and the tissues were homogenized using a hand-held homogenizer. Phages in the tissue lysate were amplified in E.coli, purified by precipitation with PEG-8000, and DNA was extracted using a DNA extraction kit (High Pure PCR Template Preparation Kit; Roche, Basel, Switzerland). Next-generation sequencing of phage genomic DNA with Ion Torrent system (Thermo Fisher Scientific, Waltham, MA, USA) was used to evaluate the representation of each peptide-phage in the input mixture, in tumors and control organs. The FASTQ data from Ion Torrent were processed using a custom python script that identified the barcodes, constant flanking residues, and extracted the reads of the correct length.

In experiment [2] the test system is recombinant b1b2 domain of NRP-1. The experiment can be described thus: Cell-free phage binding to NRP-1. Particulars: T7 phage-displayed peptide. As for the experimental part: (§3) The eluted phages were titered and amplified for a next round of selection. After 5 rounds of selection, peptide-encoding DNA from a set of 48 phage clones was subjected to Sanger sequencing of peptide-encoding phage DNA[18],[22]. For cell-free binding studies with individual phage clones were incubated with Ni-NTA magnetic beads coated with hexahistidine-tagged TNC-C as above. RPARPAR phage binding to NRP-1-coated beads was used as a positive control. Phage clones displaying heptaglycine peptide (GGGGGGG, G7), or insertless phage clones were used as negative controls. […]
collected by centrifugation, resuspended in ice-cold IMAC buffer (25mM Tris-HCl, 400mM NaCl, 25mM imidazole pH 8, containing EDTA-free protease inhibitor cocktail and DNase I) and lysed by sonification (Bandelin Sonopuls HD 2070, Germany). […] TNC-C concentration was determined by bicinchoninic acid assay (Thermo Scientific #23227) , and the purity of the proteins was assessed by SDS -PAGE. […]
Single-chain antibodies: The cDNA sequences encoding TNC-C-G11-scFV were retrieved from US patent application EP2157102 A1, and synthetic DNA fragments were cloned in the pET28a+ expression plasmid. […] The purified antibodies were analyzed by SDS-PAGE. […]

Experiment [3] deals with PC3. As to the kind of experiment: In vivo play-off phage auditioning, PC3 tumor. More on the design: species or system prostate carcinoma in athymic nude mice. Particulars: phage-displayed peptide; equimolar mix, i.v. 1 × 10^10 pfu/mouse, 2 h circulation, perfusion; Ion-Torrent sequencing; mean, N = 3 mice. As for the experimental part: as §1, §2
In experiment [4] the test system is recombinant TNC-C. The experiment can be described thus: Cell-free phage binding to TNC-C. More on the design: species or system human. Particulars: T7 phage-displayed peptide; alanine scan expressed as percent binding of parental PL3 phage; 3 independent experiments. As for the experimental part: For biopanning on recombinant human TNC-C, we used NNK-encoded CX7C and X7 peptide T7 phage libraries with diversity ~5 × 10^8. Throughout our screens, the selected phages were amplified following plate amplification protocol. The 1st and 4th rounds of biopanning were performed on TNC-C immobilized on Costar 96-Well ELISA plate (#3590, Corning Life Sciences, Tewksbury, MA, USA). Briefly, the multiwell plates were coated with 20 µg/ml recombinant TNC-C in 100 µl of PBS overnight at 4 °C, followed by blocking with 1% bovine serum albumin (BSA) in PBS overnight at 4 °C. The phage library (5 × 10^8 pfu in 100 µl of PBS-BSA) was incubated overnight at 4 °C, followed by 6 washes with PBS containing 1% BSA and 0.1% Tween-20 (washing buffer) to remove background phages, and by phage rescue and amplification in E. coli strain BLT5403 (Novagen, EMD Biosciences, MA, USA)[8]. The subsequent rounds of selection were performed on Ni-NTA Magnetic Agarose Beads (QIAGEN, Hilden, Germany) coated with His-6X tagged TNC-C (30 µg/10 µl beads) at room temperature for 1 h in 400 µl of PBS. The TNC-C beads were washed 3 times with washing buffer, followed by incubation with phages in (5 × 10^8 pfu in 100 µl in washing buffer) at room temperature for 1 h. The background phages were removed by rinsing 6 times with washing buffer, and the bound phages were eluted with 1 ml of PBS containing 500 mM Imidazole and 0.1% NP40.
as §3
Fig. S13. NRP -1-dependent internalization of PL3 -functionalized AgNPs […]
Supplementary Materials and Methods
Cloning, expression , and purification of TNC-C
Vector Construction. A pF1K (Promega, # FXC00319) derivative plasmid containing full -length cDNA of TNC was used for PCR amplification of cDNA region of TNC-C with Phusion Hot Start II High -Fidelity DNA Polymerase (Thermo Fisher Scientific Inc # F -537L; primer pairs:
5′- CTCCTCT […] -3′ and 5′ -
CAGACA CTCGAG TTATCA TGTAACAATCTC -3′ for domain TNC -C. NdeI and XhoI restriction sites underlined ). The fragments were cloned in the pET28a+ plasmid for TNC -C expression as a n N-terminally His -tagged protein .
Expression and purification of TNC-C. The pET28a+ TNC-C plasmid was used for transformation of E. coli BL21 Rosetta 2 (DE3) pLysS cells (Novagen, #70956). The protein expression was induced by addition of isopropyl β-D-1-thiogalactopyranoside (IPTG) (Sigma, # I6758) to 0.5 mM final concentration and the bacteria were culture d at 18 °C for 16h . Cells were […]
collected by centrifugation, resuspended in ice-cold IMAC buffer (25mM Tris-HCl, 400mM NaCl, 25mM imidazole pH 8, containing EDTA-free protease inhibitor cocktail and DNase I) and lysed by sonification (Bandelin Sonopuls HD 2070, Germany). The cleared bacterial lysate was purified using HiTrap IMAC HP column s (GE Healthcare # 17 -0920-05) on ÄKTA purification system (GE Healthcare ), and the eluate was dialyzed against PBS using 3.5 kDa cut - off 3mL Slide-A-Lyzer Dialysis Cassettes (Thermo Scientific #66330). TNC-C concentration was determined by bicinchoninic acid assay (Thermo Scientific #23227) , and the purity of the proteins was assessed by SDS -PAGE. Mass spectrometry and de novo peptide sequencing were used to confirm the size and sequence of the purified proteins . His-tagged NRP-1 b1b2 domain was expressed and purified as described (Teesalu et al., 2009) .
Single-chain antibodies: The cDNA sequences encoding TNC-C-G11-scFV were retrieved from […]

Experiment [5] concerns P13. As to the kind of experiment: In vivo play-off phage auditioning, P13 tumor. More on the design: species or system P13 glioblastoma in athymic nude mice. Particulars: phage-displayed peptide; equimolar mix, i.v. 1 × 10^10 pfu/mouse, 2 h circulation, perfusion; Ion-Torrent sequencing; mean, N = 3 mice. As for the experimental part: as §1, §2
The test system of experiment [6] is Norm. brain. The experiment can be described thus: In vivo play-off phage auditioning, normal brain. The settings on record: phage-displayed peptide; equimolar mix, i.v. 1 × 10^10 pfu/mouse, 2 h circulation, perfusion; Ion-Torrent sequencing; mean, N = 3 mice. More on the design: species or system athymic nude mice. As for the experimental part:
as §2

The test system of experiment [7] is fibronectin EDB-domain. The experiment can be described thus: Cell-free phage binding to fibronectin EDB. Particulars: T7 phage-displayed PL3; in words.
The test system of experiment [8] is tumor tissue across models (4 glioma models and 1 prostate cancer model). The experiment can be described thus: In vivo play-off phage auditioning, across tumor models. The settings on record: T7 phage play-off, i.v., 2 h. More on the design: species or system nude mice. As for the experimental part:
as §2

The subject of experiment [9] is U87-MG. The experiment can be described thus: In vivo play-off phage auditioning, U87-MG tumor. Particulars: phage-displayed peptide; equimolar mix, i.v. 1 × 10^10 pfu/mouse, 2 h circulation, perfusion; Ion-Torrent sequencing; mean, N = 3 mice. More on the design: species or system human glioblastoma in athymic nude mice. As for the experimental part: as §1, §2
Experiment [10] has as its system WT-GBM. The experiment can be described thus: In vivo play-off phage auditioning, WT-GBM tumor. More on the design: species or system murine WT-GBM glioblastoma in athymic nude mice. The settings on record: phage-displayed peptide; equimolar mix, i.v. 1 × 10^10 pfu/mouse, 2 h circulation, perfusion; Ion-Torrent sequencing; mean, N = 3 mice. As for the experimental part: as §1, §2

As for “AGRGRLVR (left off: T7 phage particle (peptide displayed on it), end not stated, kept) [PL3]”, in [1], the “Representation of phage in tumors, P3 SCL” value was determined as 2.1 fold G7 control phage. Further, the “phage binding to NRP-1 (in words)” value in experiment [2] (NRP-1 b1b2-coated beads) was “binds”. In addition, in [2] (fold over G7 control phage), the “PL3 phage binding to b1b2 domain of NRP-1 vs heptaglycine control phage” value is on record as ~ 200 fold. Moreover, the “Representation of phage in tumors, PC3” value in experiment [3] is 3.9 fold G7 control phage. Also, in experiment [4], the “phage binding to recombinant TNC-C (in words)” value is “binds; also recorded: robust interaction with TNC-C”. For the same sequence, the “Representation of phage in tumors, P13” value in [5] is listed as 4.7 fold G7 control phage. In addition, in experiment [6], the “Representation of phage in control brain tissue (Norm. brain)” value came out at 0.4 fold G7 control phage. Further, the “phage binding to fibronectin EDB-domain” value in [7] is “did not bind; also recorded: no binding”. The “representation in tumor tissue across models” value in experiment [8] was “overrepresented in tumor tissue across models tested”. In experiment [9], the “Representation of phage in tumors, U87-MG” value worked out at 2.1 fold G7 control phage. For the same sequence, the “Representation of phage in tumors, WT-GBM” value in experiment [10] came out at 24.1 fold G7 control phage.
